# Assay results: ChEMBL document CHEMBL4725311, “Discovery of potent, orally bioavailable in vivo efficacious antagonists of the TLR7/8 pathway” (Bioorg Med Chem Lett, 2020)
# Target: T1, Toll-like receptor 7 (Mus musculus, UniProt P58681)
# T1 sequence (P58681 whole entry): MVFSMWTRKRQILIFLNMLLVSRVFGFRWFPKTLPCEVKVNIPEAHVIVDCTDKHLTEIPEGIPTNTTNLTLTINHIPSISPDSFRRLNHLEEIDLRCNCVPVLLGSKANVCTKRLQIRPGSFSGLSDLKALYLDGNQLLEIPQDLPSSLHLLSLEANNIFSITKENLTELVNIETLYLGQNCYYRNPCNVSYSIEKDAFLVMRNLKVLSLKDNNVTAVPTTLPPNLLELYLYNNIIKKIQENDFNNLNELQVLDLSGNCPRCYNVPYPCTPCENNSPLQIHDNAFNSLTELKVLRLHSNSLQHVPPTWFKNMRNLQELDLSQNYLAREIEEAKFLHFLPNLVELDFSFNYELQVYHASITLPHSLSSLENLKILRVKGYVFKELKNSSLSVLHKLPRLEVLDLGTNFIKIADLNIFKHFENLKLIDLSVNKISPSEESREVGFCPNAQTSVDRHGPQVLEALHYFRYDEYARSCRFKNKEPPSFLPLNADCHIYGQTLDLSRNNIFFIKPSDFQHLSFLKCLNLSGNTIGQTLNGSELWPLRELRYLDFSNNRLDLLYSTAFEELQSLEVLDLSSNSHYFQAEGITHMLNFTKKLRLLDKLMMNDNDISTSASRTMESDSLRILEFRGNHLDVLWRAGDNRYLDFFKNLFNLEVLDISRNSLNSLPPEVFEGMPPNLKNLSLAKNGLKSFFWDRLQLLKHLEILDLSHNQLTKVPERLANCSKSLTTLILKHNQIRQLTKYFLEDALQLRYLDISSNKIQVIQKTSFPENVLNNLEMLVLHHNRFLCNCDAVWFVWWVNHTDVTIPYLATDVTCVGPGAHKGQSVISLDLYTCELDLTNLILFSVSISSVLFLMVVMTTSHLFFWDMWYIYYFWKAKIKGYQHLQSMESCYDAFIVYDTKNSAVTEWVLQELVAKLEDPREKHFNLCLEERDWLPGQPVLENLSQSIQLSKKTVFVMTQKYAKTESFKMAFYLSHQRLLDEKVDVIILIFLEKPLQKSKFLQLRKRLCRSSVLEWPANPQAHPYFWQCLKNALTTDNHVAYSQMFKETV
# Experiment: Antagonist activity at TLR7 in mouse splenocytes assessed as inhibition of ssRNA40-induced IL6 production
# Assay type: cell-based, Splenocyte
# Details: not given
row,IC50,Structure (SMILES)
1,1.2 µM,Cn1nc(-c2ccc(OCC34CCC(O)(CC3)CC4)c(F)c2)c2cnc(N)nc21
2,0.038 µM,Cn1nc(-c2ccc(OCC34CCC(N)(CC3)CC4)c(F)c2)c2cnc(N)nc21
3,0.097 µM,Cn1nc(-c2ccc(OCCCC3CCNCC3)c(F)c2)c2cnc(N)nc21
4,0.22 µM,Cn1nc(-c2ccc(OCC3CCNCC3)c(F)c2)c2cnc(N)nc21

# Target: T2, Toll-like receptor 9 (Mus musculus, UniProt Q9EQU3)
# T2 sequence (Q9EQU3 whole entry): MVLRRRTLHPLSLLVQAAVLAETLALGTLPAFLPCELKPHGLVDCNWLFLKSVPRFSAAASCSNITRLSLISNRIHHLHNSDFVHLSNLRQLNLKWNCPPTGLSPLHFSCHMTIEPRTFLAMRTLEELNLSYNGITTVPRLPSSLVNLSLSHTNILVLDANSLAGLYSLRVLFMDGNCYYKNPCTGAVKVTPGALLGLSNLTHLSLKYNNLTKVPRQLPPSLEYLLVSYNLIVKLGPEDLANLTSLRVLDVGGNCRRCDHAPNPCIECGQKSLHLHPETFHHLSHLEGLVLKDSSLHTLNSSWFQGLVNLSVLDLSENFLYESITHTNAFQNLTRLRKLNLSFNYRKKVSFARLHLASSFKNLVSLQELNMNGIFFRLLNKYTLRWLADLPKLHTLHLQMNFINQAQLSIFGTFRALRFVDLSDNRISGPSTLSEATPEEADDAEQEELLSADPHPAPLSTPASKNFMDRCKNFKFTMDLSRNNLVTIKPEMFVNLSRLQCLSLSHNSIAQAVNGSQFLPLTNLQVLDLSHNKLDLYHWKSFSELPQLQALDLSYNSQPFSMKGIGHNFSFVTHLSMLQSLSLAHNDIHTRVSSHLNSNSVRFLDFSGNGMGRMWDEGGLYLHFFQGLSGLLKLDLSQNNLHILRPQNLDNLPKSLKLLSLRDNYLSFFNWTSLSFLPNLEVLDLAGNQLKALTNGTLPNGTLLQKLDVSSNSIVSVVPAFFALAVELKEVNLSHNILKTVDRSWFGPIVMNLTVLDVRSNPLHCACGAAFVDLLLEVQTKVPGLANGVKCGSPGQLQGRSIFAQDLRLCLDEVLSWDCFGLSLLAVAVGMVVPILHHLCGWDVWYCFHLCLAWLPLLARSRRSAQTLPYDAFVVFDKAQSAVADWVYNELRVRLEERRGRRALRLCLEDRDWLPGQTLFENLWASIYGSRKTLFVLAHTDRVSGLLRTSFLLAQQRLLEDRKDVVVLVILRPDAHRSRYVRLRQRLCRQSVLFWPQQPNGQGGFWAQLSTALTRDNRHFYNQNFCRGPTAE
# Experiment: Antagonist activity at TLR9 in mouse splenocytes assessed as inhibition of CpG1585-induced IL6 production
# Assay type: cell-based, Splenocyte
# Details: not given
row,IC50,Structure (SMILES)
1,2.8 µM,Cn1nc(-c2ccc(OCC34CCC(O)(CC3)CC4)c(F)c2)c2cnc(N)nc21
2,0.84 µM,Cn1nc(-c2ccc(OCC34CCC(N)(CC3)CC4)c(F)c2)c2cnc(N)nc21
3,1.3 µM,Cn1nc(-c2ccc(OCCCC3CCNCC3)c(F)c2)c2cnc(N)nc21
4,2 µM,Cn1nc(-c2ccc(OCC3CCNCC3)c(F)c2)c2cnc(N)nc21

# Target: T3, Toll-like receptor 9 (Homo sapiens, UniProt Q9NR96)
# T3 sequence (Q9NR96 whole entry): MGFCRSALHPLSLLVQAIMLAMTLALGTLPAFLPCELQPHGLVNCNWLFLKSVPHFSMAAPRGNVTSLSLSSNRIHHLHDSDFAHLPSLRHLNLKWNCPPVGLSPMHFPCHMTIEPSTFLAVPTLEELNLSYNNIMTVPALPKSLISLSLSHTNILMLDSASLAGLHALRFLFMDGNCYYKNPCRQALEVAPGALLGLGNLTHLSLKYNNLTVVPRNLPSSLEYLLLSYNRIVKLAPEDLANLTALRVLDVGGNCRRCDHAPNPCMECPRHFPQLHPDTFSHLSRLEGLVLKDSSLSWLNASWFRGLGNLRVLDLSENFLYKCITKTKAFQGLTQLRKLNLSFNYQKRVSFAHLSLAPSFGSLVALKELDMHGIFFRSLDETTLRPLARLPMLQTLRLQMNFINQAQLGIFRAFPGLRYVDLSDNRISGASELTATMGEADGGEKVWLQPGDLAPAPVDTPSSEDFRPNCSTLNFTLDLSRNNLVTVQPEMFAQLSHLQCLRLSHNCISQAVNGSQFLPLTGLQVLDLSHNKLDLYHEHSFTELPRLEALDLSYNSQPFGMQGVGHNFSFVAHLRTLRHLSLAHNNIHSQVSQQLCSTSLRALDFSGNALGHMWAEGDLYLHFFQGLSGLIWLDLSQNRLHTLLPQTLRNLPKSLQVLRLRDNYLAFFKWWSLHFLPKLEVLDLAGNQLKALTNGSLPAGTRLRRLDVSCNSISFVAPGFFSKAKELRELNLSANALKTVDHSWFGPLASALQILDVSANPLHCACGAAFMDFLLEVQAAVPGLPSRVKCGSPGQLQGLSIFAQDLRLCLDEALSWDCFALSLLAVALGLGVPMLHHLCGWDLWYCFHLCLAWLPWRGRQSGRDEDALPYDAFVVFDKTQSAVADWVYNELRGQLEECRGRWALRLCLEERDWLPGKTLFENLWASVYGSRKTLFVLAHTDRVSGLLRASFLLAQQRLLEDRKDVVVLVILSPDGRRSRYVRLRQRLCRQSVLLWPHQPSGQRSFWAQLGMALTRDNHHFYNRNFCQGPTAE
# Experiment: Antagonist activity at TLR9 in human PBMC assessed as inhibition of ODN2216-induced IFNalpha production
# Assay type: tissue-based
# Details: not given
row,IC50,Structure (SMILES)
1,5.3 µM,Cn1nc(-c2ccc(OCC34CCC(O)(CC3)CC4)c(F)c2)c2cnc(N)nc21
2,2.7 µM,Cn1nc(-c2ccc(OCC34CCC(N)(CC3)CC4)c(F)c2)c2cnc(N)nc21
3,2.3 µM,Cn1nc(-c2ccc(OCCCC3CCNCC3)c(F)c2)c2cnc(N)nc21
4,3.4 µM,Cn1nc(-c2ccc(OCC3CCNCC3)c(F)c2)c2cnc(N)nc21

# Test system: not listed separately
# Experiment: AUC in BALB/c mouse at 20 mg/kg, po
# Assay type: ADME, organism-based
# Parameters: dose 20 mg/kg
# Details: in vivo
row,AUC,Structure (SMILES)
1,3.05 µM·h,Cn1nc(-c2ccc(OCC34CCC(N)(CC3)CC4)c(F)c2)c2cnc(N)nc21

# Test system: not listed separately
# Experiment: Cmax in BALB/c mouse at 20 mg/kg, po
# Assay type: ADME, organism-based
# Parameters: route oral, dose 20 mg/kg
# Details: in vivo
row,Cmax,Structure (SMILES)
1,0.506 µM,Cn1nc(-c2ccc(OCC34CCC(N)(CC3)CC4)c(F)c2)c2cnc(N)nc21

# Test system: not listed separately
# Experiment: Clearance in BALB/c mouse at 5 mg/kg, iv
# Assay type: ADME, organism-based
# Details: in vivo
row,clearance,Structure (SMILES)
1,5.88 L/h/kg,Cn1nc(-c2ccc(OCC34CCC(N)(CC3)CC4)c(F)c2)c2cnc(N)nc21
2,9.9 L/h/kg,Cn1nc(-c2ccc(OCCCC3CCNCC3)c(F)c2)c2cnc(N)nc21

# Test system: not listed separately
# Experiment: Volume of distribution at steady state in BALB/c mouse at 5 mg/kg, iv
# Assay type: ADME, organism-based
# Details: in vivo, read-out: Vdss
row,Vd,Structure (SMILES)
1,15 L/kg,Cn1nc(-c2ccc(OCC34CCC(N)(CC3)CC4)c(F)c2)c2cnc(N)nc21
2,29 L/kg,Cn1nc(-c2ccc(OCCCC3CCNCC3)c(F)c2)c2cnc(N)nc21

# Test system: not listed separately
# Experiment: Terminal half life in BALB/c mouse at 5 mg/kg, iv
# Assay type: ADME, organism-based
# Details: in vivo, read-out: beta t1/2 (converted)
row,half-life,Structure (SMILES)
1,4.1 h,Cn1nc(-c2ccc(OCC34CCC(N)(CC3)CC4)c(F)c2)c2cnc(N)nc21
2,5.9 h,Cn1nc(-c2ccc(OCCCC3CCNCC3)c(F)c2)c2cnc(N)nc21

# Test system: not listed separately
# Experiment: Oral bioavailability in BALB/c mouse at 20 mg/kg
# Assay type: ADME, organism-based
# Details: in vivo
row,bioavailability,Structure (SMILES)
1,36%,Cn1nc(-c2ccc(OCC34CCC(N)(CC3)CC4)c(F)c2)c2cnc(N)nc21
2,0%,Cn1nc(-c2ccc(OCCCC3CCNCC3)c(F)c2)c2cnc(N)nc21

# Test system: not listed separately
# Experiment: Drug uptake in 129Sv mouse at 30 mg/kg, ip measured after 2 hrs
# Assay type: ADME, organism-based
# Details: in vivo, read-out: Drug uptake
row,concentration at 2 h,Structure (SMILES)
1,1.5 µM,Cn1nc(-c2ccc(OCCCC3CCNCC3)c(F)c2)c2cnc(N)nc21
